Peptide text beside a SMILES is read from it.
Columns and labels:
[1] = test system: skeletal muscle (gastrocnemius) glucose uptake; assay: In vivo skeletal muscle 2-deoxyglucose (2DG) uptake; set-up: species or system mouse (C57BL/6J)
Procedure: 2-deoxyglucose (2-DG) uptake experiment: Male C57BL/6J mice at 14–15 weeks of age were received sham injection (injected nothing) for seven days before the experiment to acclimated to the invasive stimulus by the injection. A selective CK2 inhibitor CX-4945 (MCE) was dissolved in 0.9% saline containing 5% DMSO. After 120 min of fasting, mice were intraperitoneally injected with a CK2 inhibitor at 25 mg/kg or vehicle.[45] Two hours later, mice were injected insulin at 0.75 U/kg (MilliporeSigma) and MOTS-c at 7.5 mg/kg (GenScript) or sterilized water. Then 10 min later, 5 μg of 2DG (Sigma-Aldrich) was injected.[46] Mice were euthanized 45 min after 2DG injection and gastrocnemius muscle was collected. The collected samples were stored at −80°C for further analyses. The entire gastrocnemius muscle was used for the analysis to avoid potential bias.
To measure glucose uptake into mouse skeletal muscle, 2-DG uptake measurement kit was used (Cosmo Bio). Gastrocnemius muscle samples were homogenized in 10 mM tris-HCL (pH. 8.1) and then incubated at 95°C for 15 min. Samples were centrifuged for 15 min at 17,800 g (4°C), and the supernatant was diluted in 10 mM tris-HCl.[66] Diluted samples ([…]) were used for further analysis according to the manufacturer’s instructions (Cosmo Bio Co.).

CK2α = target: T1, CK2α (Homo sapiens, UniProt P68400); assay: Surface plasmon resonance (Biacore assay), CK2α; format: binding; conditions: SPR, peptide immobilized, CK2α flowed
T1 construct: purchased GenScript
T1 sequence (P68400 whole entry): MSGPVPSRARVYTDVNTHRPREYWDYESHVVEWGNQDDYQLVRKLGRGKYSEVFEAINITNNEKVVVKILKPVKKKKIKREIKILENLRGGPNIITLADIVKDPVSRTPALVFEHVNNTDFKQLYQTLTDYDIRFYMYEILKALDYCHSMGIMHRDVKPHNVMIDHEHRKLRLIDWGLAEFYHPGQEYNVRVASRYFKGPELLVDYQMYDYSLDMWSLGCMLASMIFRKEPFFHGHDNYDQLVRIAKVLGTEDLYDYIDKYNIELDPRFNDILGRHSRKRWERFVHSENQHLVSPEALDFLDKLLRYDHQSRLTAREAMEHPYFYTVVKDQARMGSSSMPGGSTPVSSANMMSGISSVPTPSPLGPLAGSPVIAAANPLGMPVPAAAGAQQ
Text: Figure 2 MOTS-c directly binds and activates CK2 in cell-free systems (A–C) Dot blot assays with (A) CK2 complex (contains both CK2α and CK2β subunits) immobilized, MOTS-c flowed over the membrane, and detected by MOTS-c antibody. (B–C) MOTS-c immobilized, CK2 complex flowed over the membrane, and detected by CK2α (B) and CK2β (C) antibodies. (D) CK2α or CK2β immobilized, MOTS-c flowed over the membrane, and detected by MOTS-c antibody. FO, flow over; IB, immunoblotting. (E): Surface plasmon resonance (Biacore assay) of MOTS-c (10 μg/mL) and CK2α (2.5 nM, 5.0 nM, 10 nM, and 20 nM). MOTS-c was immobilized on the sensor chip and CK2α flowed over the sensor chip. KD, dissociation constant. (F) Molecular docking simulation of the binding between MOTS-c and CK2α by using AlphaFold2. (G) CK2 activity assessed by kinase activity assay with/without MOTS-c in cell-free condition. […]
The kinetics of MOTS-c WT/K14Q (GenScript) and CK2α (GenScript)/β (IBL) were assessed by using surface plasmon resonance (Biacore T200, Cytiva). […] Then, since we detected the binding signal only with CK2α, CK2α was flowed (30 μL/min) over the sensor chip at 2.5 nM, 5.0 nM, 10 nM, and 20 nM in running buffer (0.01M HEPES, 0.15 M NaCl, 0.3 mM EDTA, and 0.05% tween). After each concentration of CK2α was assessed, CK2α was removed using 4 mM and 5 mM Sodium Hydroxide for MOTS-c and K14Q MOTS-c, respectively. […]

[2] = Plasma MOTS-c levels after MOTS-c administration; format: in vivo, mouse (C57BL/6J); conditions: single IP 7.5 mg/kg, young mice, n = 5 per time point
Procedure: Figure 3 MOTS-c modulates CK2 activity in a tissue-specific manner (A) Experimental design of a single MOTS-c administration (7.5 mg/kg) experiment in young mice (n = 5 per time point). (B) Plasma MOTS-c levels after MOTS-c administration. ∗: p < 0.05 versus time 0. (C) Quantification of CK2 activity assessed by western blotting in each tissue shown in ([…]). (E–F) CK2 activity assessed by western blotting with p-CK2 substrate antibody in gastrocnemius muscle (D), epididymal fat (E), and liver (F) after MOTS-c administration. ∗p < 0.05, ∗∗p < 0.01 versus time 0 in same tissue. (G–I) MOTS-c detection following CK2α immunoprecipitation (IP) in gastrocnemius muscle (G), epididymal fat (H), and liver (I) 30 min after MOTS-c administration (7.5 mg/kg). The "-" indicates tissues from non-MOTS-c administered mice, while the "+" indicates tissues from MOTS-c administered mice. (J–K) CK2 activity after 10 min MOTS-c treatment (10 μM) in differentiated skeletal muscle (J) and adipocyte (K). Data are represented as mean ± SEM for (B, C, J, and K).
Acute MOTS-c administration experiment: Male C57BL/6J mice at 10–12 weeks of age were randomly assigned to one of the experimental time points: 0 min, 15 min, 30 min, or 180 min. MOTS-c ([…]) was administered by intraperitoneal injection. At each time point, plasma was collected under anesthesia with isoflurane. […]

Reciprocal of KD (CK2α) [nM⁻¹]	MOTS-c levels in plasma [2]	SMILES	Muscle glucose uptake, CK2 inhibitor co-administered with MOTS-c ([1]; CX-4945 25 mg/kg + MOTS-c 7.5 mg/kg)	Muscle glucose uptake with CK2 inhibitor alone ([1]; CX-4945 25 mg/kg IP 2 h before insulin 0.75 U/kg, p = 0.053, n = 10-11 per group)
–	–	O=C(O)c1ccc2c(c1)nc(Nc1cccc(Cl)c1)c1ccncc12 [CX-4945]	prevented the increase in muscle glucose uptake by MOTS-c	decreased muscle glucose uptake (p = 0.053)
0.062	–	CC[C@H](C)[C@H](NC(=O)[C@H](Cc1ccc(O)cc1)NC(=O)CNC(=O)[C@H](CCSC)NC(=O)[C@H](CCC(=O)O)NC(=O)[C@H](CCC(N)=O)NC(=O)[C@H](Cc1c[nH]c2ccccc12)NC(=O)[C@H](CCCNC(=N)N)NC(=O)[C@@H](N)CCSC)C(=O)N[C@@H](Cc1ccccc1)C(=O)N[C@@H](Cc1ccc(O)cc1)C(=O)N1CCC[C@H]1C(=O)N[C@@H](CCCNC(=N)N)C(=O)N[C@@H](CCC(N)=O)C(=O)N[C@@H](CC(C)C)C(=O)N[C@@H](CCCNC(=N)N)C(=O)O [K14Q MOTS-c] (H-MRWQEMGYIFYPRQLR-OH)	–	–
1.0	increased MOTS-c levels in plasma	CC[C@H](C)[C@H](NC(=O)[C@H](Cc1ccc(O)cc1)NC(=O)CNC(=O)[C@H](CCSC)NC(=O)[C@H](CCC(=O)O)NC(=O)[C@H](CCC(N)=O)NC(=O)[C@H](Cc1c[nH]c2ccccc12)NC(=O)[C@H](CCCNC(=N)N)NC(=O)[C@@H](N)CCSC)C(=O)N[C@@H](Cc1ccccc1)C(=O)N[C@@H](Cc1ccc(O)cc1)C(=O)N1CCC[C@H]1C(=O)N[C@@H](CCCNC(=N)N)C(=O)N[C@@H](CCCCN)C(=O)N[C@@H](CC(C)C)C(=O)N[C@@H](CCCNC(=N)N)C(=O)O [MOTS-c] (H-MRWQEMGYIFYPRKLR-OH)	–	–

Source: publication PMC11570452, “MOTS-c modulates skeletal muscle function by directly binding and activating CK2” (iScience, 2024)
